Data published in US20240415123A1, “METHODS AND COMPOSITIONS FOR ICAFOLIN HERBICIDE TOLERANCE” (Monsanto Technology LLC, priority 2023, published 2024).

What was measured:
[1] = test system: transgenic soybean plants expressing CYP14; assay: Icafolin herbicide injury rating, greenhouse spray, CYP14 soybean; assay type: in vivo
Description: The codon-optimized polynucleotide sequences were placed into plant transformation cassettes with each CYP coding sequence operably-linked to a constitutive expression element comprising the promoter, leader, and intron sequence of Arabidopsis thaliana Ubiquitin 3 (SEQ ID NO:14) and a Medicago truncatula photosystem II terminator (SEQ ID NO:15). Four plant transformation vectors were created, each comprising one of the CYP gene expression cassettes and an aadA selectable marker expression cassette, conferring resistance to the antibiotics spectinomycin and streptomycin. Soybean cultivar AG3555 seed-derived embryo explants were transformed with the vectors by Agrobacterium-mediated transformation using known methods in the art, and transformed plantlets were selected based on growth in the presence of spectinomycin. Plantlets comprising single copy events were grown in the greenhouse to produce R1 seeds. R1 plants were subsequently selected for homozygous CYP-positive plants, either by molecular analysis of young leaf tissue or by seed chipping prior to planting. These selected plants were then screened for tolerance to icafolin herbicide.
(§1) Herbicide tolerance screens were performed by selecting R1 plants at roughly the V2-V3 developmental stage and applying icafolin herbicide with a track sprayer under standard greenhouse conditions. Two independent transgenic events per transgene were screened. The herbicide was formulated with 1% v/v methylated seed oil (MSO) and 2.5% v/v ammonium sulfate (AMS) and sprayed with a XR nozzle at 15 gallons per […] (GPA) to mimic field conditions. The icafolin used in this Example and in the experiments described in Examples 2-4 was a mixture of the methyl ester forms of the 2R, 4R and 2S, 4S isomers. The icafolin formulation was sprayed at two rates: 5 g active ingredient (ai)/hectare (ha) and 25 g ai/ha. The herbicide treated soybean plants were returned to the greenhouse following spray application and allowed to grow under standard conditions. Plants were rated for herbicide injury at approximately 14 and 21 days after treatment (DAT). Untreated transgenic plants and control (wild-type) plants were used for phenotypic comparison. The herbicide injury rating accounts for plant malformation, stunting, chlorosis, necrosis, and plant death relative to the untreated control plants. An injury rating of approximately 90% or above indicates nearly complete plant death. An injury rating of less than 30% indicates partial tolerance, and an injury rating of less than 20% indicates good tolerance. Injury ratings were collected and analyzed, and photographs of representative plants were taken.

[2] = test system: control (wild-type) soybean plants; assay: Icafolin herbicide injury rating, greenhouse spray, control soybean; assay type: in vivo; details: for Percent Injury 13 DAT / Percent Injury 14 DAT / Percent Injury 15 DAT / Percent injury 21 DAT: Control
Experimental: as §1
(§2) Herbicide tolerance screening was performed by selecting R1 plants at roughly the V2-V3 developmental stage and applying the icafolin herbicide in a track sprayer under standard greenhouse conditions. Two independent transgenic events per transgene were selected for screening. The herbicide was formulated with 1% v/v methylated seed oil (MSO) and 2.5% v/v ammonium sulfate (AMS) and sprayed with a XR nozzle at 15 gallons per […] (GPA) to mimic field conditions. The icafolin formulation was sprayed at two rates: 5 g active ingredient (ai)/hectare (ha) and 25 g ai/ha. The treated soybean plants were returned to the greenhouse following spray application and allowed to grow under standard conditions. The plants were rated for herbicide injury at approximately 14 and 21 days after treatment (DAT). Untreated transgenic plants and control (wild-type) plants were used for phenotypic comparison. The herbicide injury rating accounts for plant malformation, stunting, chlorosis, necrosis, and plant death relative to the untreated control plants. An injury rating of approximately 90% or above indicates nearly complete plant death. An injury rating of less than 30% indicates partial tolerance and an injury rating of less than 20% indicates good tolerance. Injury ratings were collected and analyzed, and photographs of representative plants were taken.
as §2, with “13” for “14”, “An injury rating of approximately 90% or above indicates nearly complete plant death. An injury rating of less than 30% indicates partial tolerance and an injury rating of less than 20% indicates good tolerance. Injury ratings were collected and analyzed, and photographs of representative plants were taken.” left out

[3] = CYP14 Event 267, 5 g ai/ha icafolin, Experiment 2
[4] = CYP14 Event 267, 5 g ai/ha icafolin, Experiment 1
[5] = CYP14 Event 267, 25 g ai/ha icafolin, Experiment 2
[6] = CYP14 Event 267, 25 g ai/ha icafolin, Experiment 1
[7] = CYP14 Event 280, 5 g ai/ha icafolin, Experiment 2
[8] = CYP14 Event 280, 25 g ai/ha icafolin, Experiment 2
[9] = CYP14 Event 309, 5 g ai/ha icafolin, Experiment 2
[10] = CYP14 Event 309, 5 g ai/ha icafolin, Experiment 1
[11] = CYP14 Event 309, 25 g ai/ha icafolin, Experiment 2
[12] = CYP14 Event 309, 25 g ai/ha icafolin, Experiment 1
[13] = CYP14 Event 324, 5 g ai/ha icafolin, Experiment 2
[14] = CYP14 Event 324, 25 g ai/ha icafolin, Experiment 2
[15] = 5 g ai/ha icafolin, Experiment 1
[16] = 25 g ai/ha icafolin, Experiment 1

**Q.** How did the “Percent Injury 14 DAT” value [1, 3] turn out when `C=C[C@]1(C(=O)N[C@H]2CO[C@@H](C(=O)OC)C2)CC(c2cc(F)cc(F)c2)=NO1` (relative stereo) [icafolin, methyl(2R*,4R*)-4-[[(5S)-3-(3,5-difluorophenyl)-5-vinyl-4H-isoxazole-5-carbonyl]amino]tetrahydrofuran-2-carboxylate] was run?
**A.** Its value is 32%.

**Q.** And the “Percent Injury 15 DAT” value [1, 4]?
**A.** The value was 14%.

**Q.** What about the “Percent injury 21 DAT” value [1, 4] of the same compound?
**A.** The value was 12%.

**Q.** And the “Percent injury 21 DAT” value [1, 3]?
**A.** The value was 20%.

**Q.** What about the “Percent Injury 14 DAT” value [1, 5] of the same compound?
**A.** Its value is 79%.

**Q.** What about the “Percent Injury 15 DAT” value [1, 6] of the same compound?
**A.** The value was 39%.

**Q.** And the “Percent injury 21 DAT” value [1, 6]?
**A.** The value was 47%.

**Q.** What about the “Percent injury 21 DAT” value [1, 5] of the same compound?
**A.** Its value is 57%.

**Q.** What about the “Percent Injury 14 DAT” value [1, 7] of the same compound?
**A.** Its value is 19%.

**Q.** And the “Percent injury 21 DAT” value [1, 7]?
**A.** The value was 12%.

**Q.** What about the “Percent Injury 14 DAT” value [1, 8] of the same compound?
**A.** Its value is 64%.

**Q.** And the “Percent injury 21 DAT” value [1, 8]?
**A.** Its value is 35%.

**Q.** And the “Percent Injury 14 DAT” value [1, 9]?
**A.** The value was 37%.

**Q.** What about the “Percent Injury 15 DAT” value [1, 10] of the same compound?
**A.** Its value is 33%.

**Q.** What about the “Percent injury 21 DAT” value [1, 10] of the same compound?
**A.** Its value is 36%.

**Q.** And the “Percent injury 21 DAT” value [1, 9]?
**A.** The value was 22%.

**Q.** What about the “Percent Injury 14 DAT” value [1, 11] of the same compound?
**A.** Its value is 90%.

**Q.** And the “Percent Injury 15 DAT” value [1, 12]?
**A.** The value was 71%.

**Q.** And the “Percent injury 21 DAT” value [1, 12]?
**A.** The value was 81%.

**Q.** What about the “Percent injury 21 DAT” value [1, 11] of the same compound?
**A.** Its value is 89%.

**Q.** And the “Percent Injury 14 DAT” value [1, 13]?
**A.** The value was 48%.

**Q.** And the “Percent injury 21 DAT” value [1, 13]?
**A.** The value was 30%.

**Q.** And the “Percent Injury 14 DAT” value [1, 14]?
**A.** Its value is 75%.

**Q.** What about the “Percent injury 21 DAT” value [1, 14] of the same compound?
**A.** Its value is 66%.

**Q.** And the Tolerance to icafolin ([1]; in vivo)?
**A.** Its Tolerance to icafolin is “unexpected tolerance”.

**Q.** What about the “injury” value ([1]; in vivo) of the same compound?
**A.** The value was “less than 30%”.

**Q.** And the “Percent Injury 13 DAT” value ([2]; 5 g ai/ha icafolin, 13 DAT, Table 10 (Example 4))?
**A.** The value was 42.5%.

**Q.** What about the “Percent Injury 14 DAT” value ([2]; 5 g ai/ha icafolin, 14 DAT, Experiment 2) of the same compound?
**A.** Its value is 61%.

**Q.** What about the “Percent Injury 14 DAT” value ([2]; 5 g ai/ha icafolin, 14 DAT, Table 8 (Example 3)) of the same compound?
**A.** The value was 45.0%.

**Q.** And the “Percent Injury 15 DAT” value [2, 15]?
**A.** The value was 42%.

**Q.** What about the “Percent injury 21 DAT” value [2, 15] of the same compound?
**A.** Its value is 50%.

**Q.** What about the “Percent injury 21 DAT” value ([2]; 5 g ai/ha icafolin, Experiment 2) of the same compound?
**A.** The value was 49%.

**Q.** What about the “Percent injury 21 DAT” value ([2]; 5 g ai/ha icafolin, Table 8 (Example 3)) of the same compound?
**A.** The value was 35.6%.

**Q.** What about the “Percent injury 21 DAT” value ([2]; 5 g ai/ha icafolin, Table 10 (Example 4)) of the same compound?
**A.** The value was 35.0%.

**Q.** And the “Percent Injury 13 DAT” value ([2]; 25 g ai/ha icafolin, 13 DAT, Table 10 (Example 4))?
**A.** The value was 70.0%.

**Q.** And the “Percent Injury 14 DAT” value ([2]; 25 g ai/ha icafolin, 14 DAT, Experiment 2)?
**A.** Its value is 90%.

**Q.** What about the “Percent Injury 14 DAT” value ([2]; 25 g ai/ha icafolin, 14 DAT, Table 8 (Example 3)) of the same compound?
**A.** Its value is 78.1%.

**Q.** And the “Percent Injury 15 DAT” value [2, 16]?
**A.** The value was 75%.

**Q.** And the “Percent injury 21 DAT” value [2, 16]?
**A.** Its value is 81%.

**Q.** And the “Percent injury 21 DAT” value ([2]; 25 g ai/ha icafolin, Experiment 2)?
**A.** Its value is 91%.

**Q.** What about the “Percent injury 21 DAT” value ([2]; 25 g ai/ha icafolin, Table 8 (Example 3)) of the same compound?
**A.** Its value is 83.1%.

**Q.** And the “Percent injury 21 DAT” value ([2]; 25 g ai/ha icafolin, Table 10 (Example 4))?
**A.** Its value is 79.4%.

**Q.** What about the “injury” value ([2]; control, 25 g ai/ha, 13 DAT, Example 4) of the same compound?
**A.** Its value is “about 70%”.

**Q.** What about the “injury” value ([2]; control, 25 g ai/ha, 14 DAT, Example 3) of the same compound?
**A.** Its value is “about 78%”.

**Q.** And the “injury” value ([2]; treated control (wild-type), 5 g ai/ha, Example 1)?
**A.** Its value is “around 50%”.

**Q.** What about the Injury in words ([2]; treated control (wild-type), 5 g ai/ha, Experiment 1) of the same compound?
**A.** The Injury in words was “heavily injured”.

**Q.** What about the Injury in words ([2]; treated control (wild-type), 25 g ai/ha, Experiment 1) of the same compound?
**A.** The Injury in words was “nearly completely killed”.

**Q.** And the “injury” value ([2]; treated control, 5 g ai/ha, 13 DAT, Example 4)?
**A.** The value was “around 42%”.

**Q.** And the “injury” value ([2]; treated control, 5 g ai/ha, 14 DAT, Example 3)?
**A.** The value was “around 45%”.

**Q.** What about the “injury” value ([2]; treated controls, 25 g ai/ha, Example 1) of the same compound?
**A.** Its value is “around 90%”.
